Laboratory results: the supplement of paper PMC4862054

Experiments:
Conditions in all cases: incubation time: 72 h
BT-549 [1] = assay: normalised viability (% of control), CellTiter-Blue; higher = more viable cells (about 100 = DMSO control)
Method in brief: (§1)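 Breast cancer cell lines in 20 µl suspension were seeded onto 384-well plates pre-loaded with compound dissolved in 5 µl medium, then incubated 72 h. CellTiter-Blue reagent (2.5 µl) was added for 2 h at 37 °C and fluorescence read at 560/590 nm. Each plate was normalised to vehicle (100) and a positive kill control (0), with Z'-factor quality control. The value is normalised viability at one listed concentration of the series.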

CAL-120 [2] = assay: as above
Method in brief: as §1

CAL-85-1 [3] = assay: as above
Method in brief: as §1

HDQ-P1 [4] = assay: as above
Method in brief: as §1

Hs578T [5] = assay: as above
Method in brief: as §1

MDA-MB-436 [6] = assay: as above
Method in brief: as §1

BT-474 = assay: drug sensitivity score (DSS), CellTiter-Glo (DSS (AUC-based score)); higher = stronger drug effect (viability inhibition or cytotoxicity); extreme values may be limits of the assay
Method in brief: (§2)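 Each compound occupied 5 concentrations in 10-fold steps over its own 10,000-fold range in 384-well plates, into which breast cancer cell lines were seeded as 20 µl suspension. Following 72 h of incubation, CellTox Green fluorescence (485/520 nm) was measured, and CellTiter-Glo luminescence was measured after 10 min at room temperature. Plates were individually normalised to 0.1 % DMSO and a positive kill control. From the area under the fitted dose-response curve, a drug sensitivity score was calculated.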

BT-549 [7] = assay: as above
Method in brief: as §2

CAL-120 [8] = assay: as above
Method in brief: as §2

CAL-148 = assay: as above
Method in brief: as §2

CAL-51 = assay: as above
Method in brief: as §2

CAL-85-1 [9] = assay: as above
Method in brief: as §2

DU-4475 = assay: as above
Method in brief: as §2

HCC1143 = assay: as above
Method in brief: as §2

HCC1599 = assay: as above
Method in brief: as §2

HCC1937 = assay: as above
Method in brief: as §2

HDQ-P1 [10] = assay: as above
Method in brief: as §2

Hs578T [11] = assay: as above
Method in brief: as §2

MCF-10A = assay: as above
Method in brief: as §2

MDA-MB-231 = assay: as above
Method in brief: as §2

MDA-MB-436 [12] = assay: as above
Method in brief: as §2

MDA-MB-453 = assay: as above
Method in brief: as §2

MDA-MB-468 = assay: as above
Method in brief: as §2

MFM-223 = assay: as above
Method in brief: as §2

SK-BR-3 = assay: as above
Method in brief: as §2

Row | SMILES | normalised viability (BT-549 [1]; 10 nM) | normalised viability (BT-549 [1]; 1000 nM) | normalised viability (BT-549 [1]; 10000 nM) | normalised viability (CAL-120 [2]; 10 nM) | normalised viability (CAL-120 [2]; 1000 nM) | normalised viability (CAL-120 [2]; 10000 nM) | normalised viability (CAL-85-1 [3]; 3 nM) | normalised viability (CAL-85-1 [3]; 30 nM) | normalised viability (CAL-85-1 [3]; 100 nM) | normalised viability (HDQ-P1 [4]; 3 nM) | normalised viability (HDQ-P1 [4]; 30 nM) | normalised viability (HDQ-P1 [4]; 100 nM) | normalised viability (Hs578T [5]; 10 nM) | normalised viability (Hs578T [5]; 1000 nM) | normalised viability (Hs578T [5]; 10000 nM) | normalised viability (MDA-MB-436 [6]; 10 nM) | normalised viability (MDA-MB-436 [6]; 1000 nM) | normalised viability (MDA-MB-436 [6]; 10000 nM) | drug sensitivity score (BT-474) | drug sensitivity score (BT-549 [7]) | drug sensitivity score (CAL-120 [8]) | drug sensitivity score (CAL-148) | drug sensitivity score (CAL-51) | drug sensitivity score (CAL-85-1 [9]) | drug sensitivity score (DU-4475) | drug sensitivity score (HCC1143) | drug sensitivity score (HCC1599) | drug sensitivity score (HCC1937) | drug sensitivity score (HDQ-P1 [10]) | drug sensitivity score (Hs578T [11]) | drug sensitivity score (MCF-10A) | drug sensitivity score (MDA-MB-231) | drug sensitivity score (MDA-MB-436 [12]) | drug sensitivity score (MDA-MB-453) | drug sensitivity score (MDA-MB-468) | drug sensitivity score (MFM-223) | drug sensitivity score (SK-BR-3)
1 | C=CCn1c(=O)c2cnc(Nc3ccc(N4CCN(C)CC4)cc3)nc2n1-c1cccc(C(C)(C)O)n1 [MK1775] | 103% | 31% | 9.32% | 91.2% | 26% | 9.09% | 79.6% | 80.9% | 78.6% | 92.9% | 98.5% | 94.4% | 111% | 34.4% | 16.2% | 113% | 37% | 21.4% | 13.9 | 15.7 | 12.1 | 19.3 | 15.5 | 16.2 | 8.47 | 11.6 | 19.9 | 12.4 | 14.9 | 14.5 | 9.77 | 15.7 | 16.7 | 14.6 | 12.5 | 12.4 | 18.8
2 | COc1cc(Nc2c(C#N)cnc3cc(OCCCN4CCN(C)CC4)c(OC)cc23)c(Cl)cc1Cl [Bosutinib] | 91.9% | 95.4% | 6.38% | 87.5% | 70.5% | 11.1% | 92.2% | 111% | 96.8% | 109% | 121% | 104% | 120% | 98.2% | 27.4% | 111% | 95% | 16.8% | 6.85 | 4.99 | 5.53 | 1.7 | 7.53 | 9.16 | 0 | 3.67 | 5.58 | 7.57 | 11.3 | 0.947 | 15.1 | 8.52 | 7.31 | 5.47 | 8.1 | 4.34 | 5.72
